≈ marks a conversion by molar mass, not a printed value.
Tests used:
[1] = In vivo pharmacokinetic analysis; conditions: mouse, i.p. 25 mg/kg
Procedure: FIGURE 8 (A) In vivo pharmacokinetic (PK) analysis of compound 2 (mean±sem, n = 2 per time point). (B) Body weight throughout the 7‐week treatment. Mice of the indicated genotypes (mean±sem, n = 2) were treated with compound 2 or vehicle, starting at 6 weeks of age. (C) Progerin and H3K9Me3 levels in lung and liver, respectively, of mice treated for 7 weeks. Representative cropped immunoblots are shown. MW, molecular weight (in kDa) markers. […] TEXT PRINTED IN THE PICTURE: (A) no label printed: VD (L·Kg^-1): 11± 5 (Dose (D) (mg·Kg^-1): 25); Ke (h^-1): 0.9± 0.1 (Dose (D) (mg·Kg^-1): 25); t1/2 (h): […] (Dose (D) (mg·Kg^-1): 25); AUC (mg·h·L^-1): 3±1 (Dose (D) (mg·Kg^-1): 25); CL (L·Kg^-1·h^-1): 10±5 (Dose (D) (mg·Kg^-1): 25) DOUBTS OF THE COPYIST ABOUT THIS PICTURE: Panel A: the picture prints no substance label beside the pharmacokinetic table, so the label is left empty. "Cpd 2" is printed only in panel B. […]
All scientific procedures with animals were conformed to EU Directive 2010/63 EU and Recommendation 2007/526/EC, enforced in Spanish law under Real Decreto 53/2013.
Animal protocols were approved by the Committee of Animal Experimentation of Universidad Complutense de Madrid and the Animal Protection Area of the Comunidad Autónoma de Madrid (PROEX 114.4/24). Animal studies were carried out in LmnaG609G/G609G knock-in mice ubiquitously expressing progerin[19] and control Lmna+/+ littermates, obtained by breeding LmnaG609G/+ mice kindly donated by Prof. V. Andrés (CNIC, Spain). Mice were maintained in the animal facility of the Universidad Complutense de Madrid under specific pathogen free conditions.
For pharmacokinetic studies, compound 2 was administered intraperitoneally and blood was collected at the selected time points post-dose (n=2-3 per time point) by cardiac puncture. Blood was allowed to clot at room temperature for 30 min and centrifuged at 4 °C for 10 min at 10000g. The supernatant was transferred to a clean polypropylene tube and stored at -80 °C until analysis. For analysis, a volume of cold acetonitrile was added to the serum. The sample was incubated in an ice bath for 10 min and centrifuged at 4 °C for 10 min at 18000g. The resulting organic layer was filtered through a polytetrafluoroethylene filter (0.2 µm, 13 mm diameter, Agilent Technologies) and 30 µL of the sample analyzed by liquid chromatography coupled to mass spectrometry multiple reaction monitoring at the UCM’s Mass Spectrometry CAI. Separation was performed using a Phenomenex Gemini 5 µm C18 110Å 150x2 mm column (run time 9 min; flow 0.7 mL/min; gradient: 0 min 5% B; 4-7 min 100% B; 7.5 min 5% B; Phase A: water with formic acid 0.1%; Phase B: acetonitrile). […]
UHPLC with an oven temperature of 31.5 °C. The mass spectrometer ion optics were set in the multiple reaction monitoring mode and the transition selected for quantification […]
For in vivo treatment, compound 2 was administrated at a concentration of 25 mg/kg diluted in sterile corn oil (Sigma-Aldrich) intraperitoneally three times per week starting at the age of 6 weeks. The same quantity of corn oil was injected to control […]
After 7 weeks of treatment, mice were euthanized by CO2 inhalation. […] For immunoblot analysis, a portion of the corresponding tissue was homogenized, and the protein concentration was determined. Samples containing equivalent amounts of total protein were then subjected to polyacrylamide gel electrophoresis and analyzed as […]

[2] = Solubility in phosphate buffer solution; type: physicochemical; conditions: aqueous buffer; phosphate buffer solution (PBS, pH = 7.5)

CC1(C)Oc2cc3oc(=O)ccc3cc2C[C@@H]1OC(=O)CCCCCNc1cccc2c1C(=O)N(C1CCC(=O)NC1=O)C2=O (stereo partly drawn) [compound 2]
concentration at 1 h ([1]; ip, serum, 1 h, read-out: levels of the compound 1 h after administration): ~1500 ng/mL | signs of toxicity [1]: no evident signs of toxicity | half-life ([1]; serum, ip, 25 mg/kg, read-out: t1/2 (half‐life) (converted)): ~2 h | AUC ([1]; serum, ip): 3000 ± 1000 ng·h/mL | k el ([1]; serum, ip, read-out: Ke (converted)): 0.00025 s⁻¹ | solubility [2]: 0.5 µM (≈ 0.308 µg/mL)

Reference: PMC13252604, “First Generation Proteolysis Targeting Chimeras (PROTACs) for the Treatment of Progeria” (Advanced Science, 2026)
